Results on four molecules are retold here after ChEMBL document CHEMBL2157963, “Synthesis and in vitro antitumour screening of 2-(β-D-xylofuranosyl)thiazole-4-carboxamide and two novel tiazofurin analogues with substituted tetrahydrofurodioxol moiety as a sugar mimic” (Bioorg Med Chem Lett, 2012).

Activity calls are given as the source filed them. The rule behind the calls is not given here.

Assay [1] concerns K562. Description: Induction of apoptosis in human K562 cells assessed as apoptotic cells at IC50 concentration after 72 hrs by AnnexinV staining-based flow cytometric analysis relative to tiazofurin. It is filed as functional. On the technique in general: A flow cytometer gives signals particle by particle.
Assay [2] relates to K562. Description: Induction of apoptosis in human K562 cells at IC50 concentration after 24 hrs by AnnexinV staining-based flow cytometric analysis. It is filed as functional, cell-based.
For the next assay, the system named is HT-29. Description: Cytotoxicity against human HT-29 cells. It is filed as functional, cell-based.
For the next assay, the system named is MCF7. Description: Cytotoxicity against human MCF7 cells. The class given is functional, cell-based.
For a further assay, the system named is MDA-MB-231. Description: Cytotoxicity against human MDA-MB-231 cells. The class given is functional, cell-based.
Assay [3] has as its system K562. Description: Cytotoxicity against human K562 cells after 72 hrs by SRB assay. The conditions noted are these: K562, 72 h. It is filed as functional, cell-based.
In assay [4] the test system is K562. Description: Cytotoxicity against human K562 cells after 72 hrs by DET assay. The conditions noted are these: K562, 72 h. It is filed as functional, cell-based.
For assay [5], the system named is HeLa. Description: Cytotoxicity against human HeLa cells after 72 hrs by MTT assay. It is filed as functional, cell-based. A general note: Formazan colour is commonly taken as a measure of viable cells.
The test system of the next assay is MRC5. Description: Cytotoxicity against human MRC5 cells after 72 hrs by MTT assay. The note with it: MRC5, 72 h. It is filed as cell-based.
In assay [6] the test system is HeLa. Description: Ratio of tiazofurin IC50 to compound IC50 for human HeLa cells. The class given is functional.
In the next assay the test system is Jurkat. Description: Cytotoxicity against human Jurkat cells after 72 hrs by MTT assay. It is filed as functional, cell-based.
Another assay concerns Raji. Description: Cytotoxicity against human Raji cells after 72 hrs by MTT assay. The class given is functional, cell-based.
The test system of assay [7] is K562. Description: Cytotoxicity against human K562 cells after 72 hrs by MTT assay. The class given is functional, cell-based. The note with it: K562, 72 h.
Assay [8] relates to HL-60. Description: Cytotoxicity against human HL60 cells after 72 hrs by MTT assay. The class given is functional, cell-based. The conditions noted are these: HL-60, 72 h.
Assay [9] has as its system K562. Description: Ratio of tiazofurin IC50 to compound IC50 for human K562 cells. The class given is functional.
Assay [10] relates to HL-60. Description: Ratio of tiazofurin IC50 to compound IC50 for human HL60 cells. It is filed as functional.

Usually IC50 stands for the concentration that gives 50% inhibition. Low values mean inhibition by little substance, high ones a need for much substance. Take `NC(=O)c1csc([C@@H]2O[C@H](CO)[C@H](O)[C@H]2O)n1`: in the assay with K562 [1], the “fold change (FC)” value is listed as 7. The result in the assay with K562 [2] was Active. The result in the assay on HT-29, with MCF7 and in the assay with MDA-MB-231 was inactive. Besides, the IC50 in the assay with K562 [3] was 416 nM; in the assay with K562 [4], 100 nM; with HeLa [5] it was 80 nM; in the assay on MRC5, greater than 100000 nM; in the assay with Jurkat, 530 nM; in the assay with Raji it was 3110 nM. The IC50 with K562 [7] amounted to 150 nM; with HL-60 [8], 130 nM. For the same molecule, the “Ratio IC50” value in the assay on HeLa [6] is reported as 48.
As to `NC(=O)c1csc([C@@H]2O[C@H](CO)[C@@H](O)[C@H]2O)n1` [TIAZOFURIN], the IC50 stood at 260 nM with HT-29; 260 nM with MCF7; 260 nM in the assay on MDA-MB-231; 3820 nM with HeLa [5]; 360 nM in the assay with MRC5; 40 nM in the assay on Jurkat. Further, the IC50 in the assay with Raji was determined as 5280 nM; with K562 [7] it was 2090 nM; in the assay on HL-60 [8] it was 190 nM.
Regarding `C[C@]1(c2nc(C(N)=O)cs2)O[C@H]2O[C@H](CO)[C@H](O)[C@H]2O1`, in the assay with K562 [9], the “Ratio IC50” value came to 100. Also, the IC50 was 640 nM in the assay with HeLa [5]; greater than 100000 nM with MRC5; 640 nM in the assay with Jurkat; 5610 nM in the assay on Raji; 20 nM with K562 [7]; 340 nM in the assay with HL-60 [8].
Take `C[C@@]1(c2nc(C(N)=O)cs2)O[C@H]2O[C@H](CO)[C@H](O)[C@H]2O1`: the “Ratio IC50” value turned out to be 4 in the assay on HL-60 [10] and 64 with HeLa [6]. Also, the IC50 is 60 nM with HeLa [5]; greater than 100000 nM in the assay with MRC5; 590 nM with Jurkat; 2640 nM with Raji; 100 nM with K562 [7]; 50 nM with HL-60 [8].
